According to patent publication US20070259889A1, “Protein Binding Compounds” (priority 2003, published 2007):

biological target: bovine serum albumin (BSA) (Bos taurus, UniProt P02769); assay: Protein binding studies (albumin binding, centrifugal ultrafiltration, HPLC); type: in vitro ADME; conditions: didanosine and didanosine prodrugs; method of Example 7: 4% BSA in water, 30 minutes at 37° C., 10,000 MWCO centrifugal filter, phosphate buffer pH 7.4 reference
Method: The compound (approximately 5 mg) was dissolved in DMSO (approximately 1.8 ml). A small sample of this DMSO solution (approximately 5 mg) was added to a solution of bovine serum albumin (BSA) in water (approximately 1.8 ml, 4% BSA). Another sample of the DMSO solution (approximately 5 mg) was added to a solution of phosphate buffer pH 7.4 (isotonic) (approximately 1.8 ml).
Both samples were shaken in a water bath for 30 minutes at 37° C.
The devices were centrifugated at 4000 rpm for 1 hour at 37° C.
The amount of drug in the filtrates was determined by HPLC(C-18 column, phosphate buffer pH 2.2/acetonitrile, UV detection).

bovine serum albumin (BSA), sequence (P02769 25-607): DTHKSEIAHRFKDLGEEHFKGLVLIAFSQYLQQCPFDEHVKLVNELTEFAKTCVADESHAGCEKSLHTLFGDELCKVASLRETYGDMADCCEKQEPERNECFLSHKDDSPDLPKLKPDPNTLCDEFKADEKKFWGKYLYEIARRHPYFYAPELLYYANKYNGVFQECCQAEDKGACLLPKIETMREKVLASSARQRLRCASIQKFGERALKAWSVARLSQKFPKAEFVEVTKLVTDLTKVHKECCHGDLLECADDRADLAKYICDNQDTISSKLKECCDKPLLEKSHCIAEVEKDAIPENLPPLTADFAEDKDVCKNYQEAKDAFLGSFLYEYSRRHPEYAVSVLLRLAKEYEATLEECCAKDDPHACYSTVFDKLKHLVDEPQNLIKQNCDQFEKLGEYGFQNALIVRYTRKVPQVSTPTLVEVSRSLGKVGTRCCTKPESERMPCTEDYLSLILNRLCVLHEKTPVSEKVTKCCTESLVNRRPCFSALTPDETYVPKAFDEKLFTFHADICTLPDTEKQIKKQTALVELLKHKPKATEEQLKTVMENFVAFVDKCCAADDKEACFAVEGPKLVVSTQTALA

Row | SMILES | % Albumin binding
1 | O=C(O)CCCCCCCCCCC(=O)OCC1CCC(n2cnc3c(=O)[nH]cnc32)O1 (stereo not shown) [2′,3′-dideoxy-5′-hydrogen dodecanedioate inosine] | 94%
2 | O=C(O)CCCCC(=O)OCC1CCC(n2cnc3c(=O)[nH]cnc32)O1 (stereo not shown) [2′,3′-dideoxy-5′-hydrogen hexanedioate inosine] | 10%
3 | O=C(O)CCCCCCC(=O)OCC1CCC(n2cnc3c(=O)[nH]cnc32)O1 (stereo not shown) [2′,3′-dideoxy-5′-hydrogen octanedioate inosine] | 40%
4 | O=C(O)CCCCCCCCCCCCCCC(=O)OCC1CCC(n2cnc3c(=O)[nH]cnc32)O1 (stereo not shown) [2′,3′-dideoxy-5′-hydrogen hexadecanedioate inosine] | 100%
